Drawing on patent US20240317723A1, “SUBSTITUTED AMINO AZA-HETEROARYL COMPOUNDS AS INHIBITORS OF THE HAEMATOPOIETIC PROGENITOR KINASE 1 (HPK1)” (priority 2021, published 2024), this text covers IC50 and Selectivity for 20 molecules.

Test [1] has as its target Lck (h) (Homo sapiens, UniProt P06239). Kind of test: Lck Human STE Kinase Enzymatic Radiometric Assay. The format is biochemical. Conditions: for IC50: radiometric, [gamma-33P]-ATP, Cdc2 peptide substrate, read-out: Lck IC50, nM Range*. The method, then:
(b) Lck Human STE Kinase Enzymatic Radiometric Assay
Lck (h) is incubated with 50 mM Tris pH 7.5, 0.1 mM EGTA, 0.1 mM Na3VO4, 250 uM KVEKIGEGTYGVVYK (Cdc2 peptide), 10 mM MgAcetate and [gamma-33P]-ATP (specific activity and concentration as required). The reaction is initiated by the addition of the Mg/ATP mix. After incubation for 40 minutes at room temperature, the reaction is stopped by the addition of phosphoric acid to a concentration of 0.5%. 10 uL of the reaction is then spotted onto a P30 filtermat and washed four times for 4 minutes in 0.425% phosphoric acid and once in methanol prior to drying and scintillation counting. For more details on the kinase assay procedures see: Gao, Y. et. al.; Biochem J., 451 (2): 313-328, 2013.
In some embodiments the presence of substituents on monocyclic Cy^2 rings or when Cy^2 is a bicyclic ring (unsubstituted or substituted) provides compounds with improved selectivity for inhibition of HPK1 vs Lck (see, for example, Table 3 and Table 4).

In test [2] the target is T1, Recombinant (1-346) HPK1 (h) (Homo sapiens, UniProt Q92918).
T1 construct: Recombinant (1-346) HPK1 (h) is incubated with 8 mM MOPS pH 7.0
T1 sequence (Q92918 1-346): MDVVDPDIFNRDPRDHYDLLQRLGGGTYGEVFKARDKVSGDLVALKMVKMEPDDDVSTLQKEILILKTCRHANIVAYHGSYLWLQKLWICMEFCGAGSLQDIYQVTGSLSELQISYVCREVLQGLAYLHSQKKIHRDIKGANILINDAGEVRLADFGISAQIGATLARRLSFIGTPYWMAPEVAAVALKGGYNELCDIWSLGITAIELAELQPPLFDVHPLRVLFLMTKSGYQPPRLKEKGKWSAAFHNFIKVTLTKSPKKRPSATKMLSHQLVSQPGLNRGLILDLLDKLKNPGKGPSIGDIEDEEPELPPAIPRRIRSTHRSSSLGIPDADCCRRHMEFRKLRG
As to the kind of experiment: HPK1 Human STE Kinase Enzymatic Radiometric Assay. The format is biochemical. The following applies: [gamma-33P]-ATP, myelin basic protein substrate, read-out: HPK1 IC50 nM Range*. As to the method:
(a) HPK1 Human STE Kinase Enzymatic Radiometric Assay
A stock solution of 10 mM of test compound is prepared in DMSO. The compound plate was prepared by 3-fold and 9-point serial dilutions. Recombinant (1-346) HPK1 (h) is incubated with 8 mM MOPS pH 7.0, 0.2 mM EDTA, 0.33 mg/mL myelin basic protein, 10 mM MgAcetate and [gamma-33P]-ATP (specific activity and concentration as required). The reaction is initiated by the addition of the Mg/ATP mix. After incubation for 40 minutes at RT, the reaction is stopped by the addition of phosphoric acid to a concentration of 0.5%. 10 uL of the reaction is then spotted onto a P30 filtermat and washed four times for 4 minutes in 0.425% phosphoric acid and once in methanol prior to drying and scintillation counting. For more details of kinase assay protocols, see: Gao, Y. et. al.; Biochem J. 451 (2): 313-328, 2013.

Sequence of Lck (h) (P06239 whole entry): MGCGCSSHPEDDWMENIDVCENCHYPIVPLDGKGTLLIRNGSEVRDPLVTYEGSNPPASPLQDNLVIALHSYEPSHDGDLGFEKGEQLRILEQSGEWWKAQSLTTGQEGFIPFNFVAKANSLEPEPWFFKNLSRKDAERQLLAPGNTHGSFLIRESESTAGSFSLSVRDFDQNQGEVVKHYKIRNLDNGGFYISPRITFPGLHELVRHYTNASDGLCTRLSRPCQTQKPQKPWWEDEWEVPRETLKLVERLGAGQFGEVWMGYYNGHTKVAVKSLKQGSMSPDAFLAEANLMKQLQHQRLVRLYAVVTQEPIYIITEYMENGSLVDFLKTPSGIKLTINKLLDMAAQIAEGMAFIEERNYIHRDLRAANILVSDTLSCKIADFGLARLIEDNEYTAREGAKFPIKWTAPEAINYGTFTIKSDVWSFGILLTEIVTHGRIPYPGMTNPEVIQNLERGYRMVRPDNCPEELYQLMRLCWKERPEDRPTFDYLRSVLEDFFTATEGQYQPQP

With `CC(C)N1CCN(c2ccc(-c3cnc(N)c(-c4cc5c(cc4F)C(=O)NCC5)n3)cc2)CC1` [Example I-44, 6-(3-amino-6-(4-(4-isopropylpiperazin-1-yl)phenyl)pyrazin-2-yl)-7-fluoro-3,4-dihydroisoquinolin-1(2H)-one], the IC50 lay in the range of 11 to 20 nM in test [1] and 0.1 to 5 nM in test [2].
`CC(C)[C@@H]1CN(c2ccc(-c3cnc(N)c(-c4ccc5c(c4)CCNC5=O)n3)c(F)c2)CCN1C` [Example I-39, (R)-6-(3-amino-6-(2-fluoro-4-(3-isopropyl-4-methylpiperazin-1-yl)phenyl)pyrazin-2-yl)-3,4-dihydroisoquinolin-1(2H)-one]: the IC50 in test [1] was in the range of 11 to 20 nM; in test [2] it was 0.1 to 5 nM.
With `CC(C)[C@@H]1CN(c2ccc(-c3cnc(N)c(-c4ccc5c(c4)CCNC5=O)n3)c(F)c2)CCO1` [Example I-13, (R)-6-(3-amino-6-(2-fluoro-4-(2-isopropylmorpholino)phenyl)pyrazin-2-yl)-3,4-dihydroisoquinolin-1(2H)-one], the IC50 in test [1] was 21 to 200 nM; in test [2], 0.1 to 5 nM. The Selectivity in test [1] (selectivity for inhibition of HPK1 vs Lck) amounted to 2740.
On to `CN1CCN(c2ccc(-c3cnc(N)c(-c4ccc5c(c4)CCNC5=O)n3)cc2)C=N1` [Example I-33, 6-(3-amino-6-(4-(1-methyl-5,6-dihydro-1,2,4-triazin-4(1H)-yl)phenyl)pyrazin-2-yl)-3,4-dihydroisoquinolin-1(2H)-one], for which the IC50 in test [1] lay within 11 to 20 nM; in test [2] it was 0.1 to 5 nM.
Consider `C[C@@H]1CCCCN1c1ccc(-c2cnc(N)c(-c3ccc4c(c3)CCNC4=O)n2)c(F)c1` [Example I-17, (R)-6-(3-amino-6-(2-fluoro-4-(2-methylpiperidin-1-yl)phenyl)pyrazin-2-yl)-3,4-dihydroisoquinolin-1(2H)-one], for which the IC50 in test [1] fell in the range of 21 to 200 nM; in test [2], 0.1 to 5 nM.
On to `CC(C)[C@@H]1CN(c2ccc(-c3cnc(N)c(-c4ccc5c(c4)CCNC5=O)n3)c(F)c2F)CCO1` [Example I-15, (R)-6-(3-amino-6-(2,3-difluoro-4-(2-isopropylmorpholino)phenyl)pyrazin-2-yl)-3,4-dihydroisoquinolin-1(2H)-one], for which the IC50 fell in the range of 21 to 200 nM in test [1] and 0.1 to 5 nM in test [2].
With `CC(C)[C@H]1CN(c2ccc(-c3cnc(N)c(-c4cc5c(cc4F)C(=O)NCC5)n3)c(F)c2F)CCO1` [Example I-32, (S)-6-(3-amino-6-(2,3-difluoro-4-(2-isopropylmorpholino)phenyl)pyrazin-2-yl)-7-fluoro-3,4-dihydroisoquinolin-1(2H)-one], the figures for the IC50 in test [1] and in test [2] were 21 to 200 nM and 0.1 to 5 nM, respectively.
The matching figures for `CN1CCN(c2ccc(-c3cnc(N)c(-c4ccc5c(c4)CCCNC5=O)n3)cc2)CC1` [Example I-50, 7-(3-amino-6-(4-(4-methylpiperazin-1-yl)phenyl)pyrazin-2-yl)-2,3,4,5-tetrahydro-1H-benzo[c]azepin-1-one]: 6 to 10 nM and 0.1 to 5 nM.
`CC(C)[C@H]1CN(c2ccc(-c3cnc(N)c(-c4ccc5c(c4)CCNC5=O)n3)cc2)CCN1C` [Example I-40, (S)-6-(3-amino-6-(4-(3-isopropyl-4-methylpiperazin-1-yl)phenyl)pyrazin-2-yl)-3,4-dihydroisoquinolin-1(2H)-one]: the IC50 in test [1] lay in the range of 6 to 10 nM; in test [2], 0.1 to 5 nM.
Turning to `Nc1ncc(-c2ccc(N3CCC(O)CC3)cc2)nc1-c1ccc2c(c1)CCNC2=O` [Example I-6, 6-(3-amino-6-(4-(4-hydroxypiperidin-1-yl)phenyl)pyrazin-2-yl)-3,4-dihydroisoquinolin-1(2H)-one], the IC50 lay in the range of 11 to 20 nM in test [1] and 0.1 to 5 nM in test [2].
Regarding `CC(C)N1C[C@@H]2C[C@]2(c2ccc(-c3cnc(N)c(-c4cc5c(cc4F)C(=O)NCC5)n3)cc2)C1` [Example I-48, 6-(3-amino-6-(4-((1S,5R)-3-isopropyl-3-azabicyclo[3.1.0]hexan-1-yl)phenyl)pyrazin-2-yl)-7-fluoro-3,4-dihydroisoquinolin-1(2H)-one], the IC50 was in the range of 11 to 20 nM in test [1] and 0.1 to 5 nM in test [2].
The corresponding values for `Nc1ncc(-c2ccc(C3CCN(CC(F)(F)F)CC3)cc2)nc1-c1ccc2c(c1)CCNC2=O` [Example I-36, 6-(3-amino-6-(4-(1-(2,2,2-trifluoroethyl)piperidin-4-yl)phenyl)pyrazin-2-yl)-3,4-dihydroisoquinolin-1(2H)-one] are 11 to 20 nM and 0.1 to 5 nM.
The matching figures for `CN(C)C1CCN(c2ccc(-c3cnc(N)c(-c4ccc5c(c4)CCNC5=O)n3)c(F)c2)C1` (centres unmarked) [Example I-20, 6-(3-amino-6-(4-(3-(dimethylamino)pyrrolidin-1-yl)-2-fluorophenyl)pyrazin-2-yl)-3,4-dihydroisoquinolin-1(2H)-one]: 11 to 20 nM and 0.1 to 5 nM.
With `Cc1[nH]c(=O)c2cc(F)c(-c3nc(-c4ccc(C5CCOCC5)c(CN(C)C)c4)cnc3N)cc2c1F` [II-6, 6-(3-amino-6-(3-((dimethylamino)methyl)-4-(tetrahydro-2H-pyran-4-yl)phenyl)pyrazin-2-yl)-4,7-difluoro-3-methylisoquinolin-1(2H)-one], the IC50 in test [1] fell in the range of 21 to 200 nM; in test [2], 0.1 to 5 nM.
For `Nc1ncc(-c2ccc(N3CCN(CC(F)(F)F)CC3)cc2)nc1-c1ccc2c(c1)CCNC2=O` [Example I-35, 6-(3-amino-6-(4-(4-(2,2,2-trifluoroethyl)piperazin-1-yl)phenyl)pyrazin-2-yl)-3,4-dihydroisoquinolin-1(2H)-one], the IC50 in test [1] lay in the range of 11 to 20 nM; in test [2], 0.1 to 5 nM.
With `CC(C)C1CCCN(c2ccc(-c3cnc(N)c(-c4ccc5c(c4)CCNC5=O)n3)cc2)C1` (centres unmarked) [Example I-24, 6-(3-amino-6-(4-(3-isopropylpiperidin-1-yl)phenyl)pyrazin-2-yl)-3,4-dihydroisoquinolin-1(2H)-one], the IC50 in test [1] lay within 21 to 200 nM; in test [2] it was 0.1 to 5 nM.
Regarding `Cc1nc2cc(-c3nc(-c4ccc(C5CCOCC5)c(CN(C)C)c4)cnc3N)ccc2c(=O)[nH]1` [II-3, 7-(3-amino-6-(3-((dimethylamino)methyl)-4-(tetrahydro-2H-pyran-4-yl)phenyl)pyrazin-2-yl)-2-methylquinazolin-4(3H)-one], the IC50 in test [1] lay in the range of 21 to 200 nM; in test [2], 0.1 to 5 nM.
In the case of `C[C@@H]1COCCN1c1ccc(-c2cnc(N)c(-c3ccc4c(c3)CCNC4=O)n2)c(F)c1` [Example I-22, (R)-6-(3-amino-6-(2-fluoro-4-(3-methylmorpholino)phenyl)pyrazin-2-yl)-3,4-dihydroisoquinolin-1(2H)-one], the IC50 in test [1] lay in the range of 21 to 200 nM; in test [2], 6 to 10 nM.
The corresponding values for `CN1CCN(c2ccc(-c3cnc(N)c(-c4ccc5c(c4)C(C)(C)NC5=O)n3)cc2)CC1` [Example I-2, 5-(3-amino-6-(4-(4-methylpiperazin-1-yl)phenyl)pyrazin-2-yl)-3,3-dimethylisoindolin-1-one] are 6 to 10 nM and 0.1 to 5 nM.
The corresponding values for `CC(C)[C@H]1CN(c2ccc(-c3cnc(N)c(-c4cc5c(cc4F)C(=O)NCC5)n3)c(F)c2)CCO1` [Example I-30, (S)-6-(3-amino-6-(2-fluoro-4-(2-isopropylmorpholino)phenyl)pyrazin-2-yl)-7-fluoro-3,4-dihydroisoquinolin-1(2H)-one] are 21 to 200 nM and 0.1 to 5 nM.

One may read the IC50 as the concentration that inhibits the measured activity by half.
